Earlier results in PMC10719327, “A dose-escalation study of HP501, a highly selective URAT1 inhibitor, in male Chinese patients with hyperuricemia” (Scientific Reports, 2023).

What was measured:
[1] = tested on: Japanese patients with hyperuricemia; design: method as in PMID 30334639
patients = tested on: patients; design: method as in PMID 29029210; conditions: lesinurad monotherapy

Structure (SMILES) | patients with serum creatinine elevated 1.5 times to baseline level [1] [%] | patients with increased serum creatinine (patients)
CC(C)(Sc1ccncc1-c1ccc(C#N)c2ccccc12)C(=O)O [Verinurad] | 17.1 | –
O=C(O)CSc1nnc(Br)n1-c1ccc(C2CC2)c2ccccc12 [lesinurad] | – | About 24.30%
